Laboratory results as given in patent US5532229A, “Topical administration of vitamin D to mammals” (priority 1994, dated 1996).

Assays:
[1] = Experiment 1: serum radioactivity after one administration of radiolabelled vitamin D3 (intracardiac, gastric, dermal); type: in vivo, Wistar rats
From the text: Each point is the mean of 3-6 rats;
A comparison of serum radioactivity after one administration of radiolabelled vitamin D3 via the skin or gut, compared to intravascular injection.
The protocols and procedures used in this work were approved beforehand by an animal-care committee at the University of Toronto. Wistar rats, 250-g weight and fed normal diet, were divided into three groups of six, and each rat was given 400,000 cpm of […] (57 mCi/mmol, Amersham, UK). One group was given the [^14 C]-vitamin D3 by intracardiac injection; one group was given the tracer through an infant-feeding tube, directly into the stomach; and one group received the dose by application in 50 μL ethanol to a 2×2 cm patch of shaved skin on the lower back. Blood was taken by bleeding 0.25 mL from the tail, from three rats at a time, for each time indicated in the graph, except for the final sample at 3 wk, which is from all rats at the time of killing with an anesthetic overdose. The serum was counted in a Beckman LS6800 beta-counter and results are corrected for background, sample volume, and rat weight.

[2] = Experiment 3: serum 25(OH)D3 after 6 weeks of vitamin D3 nutrition; type: in vivo, Male Wistar rats
Procedure: Male, Wistar rats were obtained at 120-130 g, and placed on a 0.01% calcium, 0.7% phosphate diet that was vitamin D deficient (Teklad Test Diets, Madison, WI) this was for one week to help deplete vitamin D stores. For the next three weeks the rats were fed the vitamin D-deficient diet, but with normal, 0.5%, calcium. Starting with these 3 weeks, the rats were divided into four vitamin D3 -treatment groups, initially, nine rats per group: group a) supplemented once weekly with 0.6 μg vitamin D3 (average dose, 0.08 μg/day); group b) supplemented once every second day with vitamin D3 to provide 2 nmol/day, i.e., each dose was 4 nmol of vitamin D3; group c) supplemented once every second day with vitamin D3 to provide 8 μg/day. The preceding groups all received the vitamin D3 through an infant-feeding tube inserted through the mouth into the stomach. One group, d), received its vitamin D3 in the ethanol applied onto a shaved 2 cm×2 cm patch of skin on the back, this was done every second day to provide vitamin D3 at 8 μg/day. The volume of each dose of vitamin D3 given was adjusted so that the stated doses are per 250 g body weight. […]
(§1) Biochemical measurements. 1,25(OH)2 D3 in serum was measured by calf-thymus receptor-binding assay after initial purification of 1,25(OH)2 D3 with C18-OH cartridges (5). For the serum volumes that were minimal, serum was measured out in 50 μL increments, and the final result was adjusted for the volume of sample analyzed. […] The material eluting as 1,25(OH)2 D3 was evaporated and redissolved in acetonitrile: water for further purification with C18-OH cartridges and quantitation by thymus receptor assay, as described for serum. Renal 24-hydroxylase was measured by incubating mitochondria with [^3 H]-25(OH)D3 as substrate (Vieth and Fraser, J Biol Chem. 254:12455-12460;1979). […]

[3] = Experiment 3: vitamin D-binding capacity of serum (specific uptake of [3H]-25(OH)D3); type: in vivo, rat; details: 6 weeks
Procedure: Male, Wistar rats were obtained at 120-130 g, and placed on a 0.01% calcium, 0.7% phosphate diet that was vitamin D deficient (Teklad Test Diets, Madison, WI) this was for one week to help deplete vitamin D stores. For the next three weeks the rats were fed the vitamin D-deficient diet, but with normal, 0.5%, calcium. Starting with these 3 weeks, the rats were divided into four vitamin D3 -treatment groups, initially, nine rats per group: group a) supplemented once weekly with 0.6 μg vitamin D3 (average dose, 0.08 μg/day); group b) supplemented once every second day with vitamin D3 to provide 2 nmol/day, i.e., each dose was 4 nmol of vitamin D3; group c) supplemented once every second day with vitamin D3 to provide 8 μg/day. The preceding groups all received the vitamin D3 through an infant-feeding tube inserted through the mouth into the stomach. One group, d), received its vitamin D3 in the ethanol applied onto a shaved 2 cm×2 cm patch of skin on the back, this was done every second day to provide vitamin D3 at 8 μg/day. The volume of each dose of vitamin D3 given was adjusted so that the stated doses are per 250 g body weight. Over a second 3-week period while maintaining the described vitamin D3 dosing regimens, diet calcium content was changed weekly and blood sampling was started (that is, changes in calcium and sampling was from weeks 4 to 6, inclusive, of receiving the appropriate vitamin D3 supplement). Diet calcium was first dropped to 0.01% then raised to 1.5% and finally dropped again to 0.01%. For each week of dietary calcium manipulation, blood was obtained at day zero (the day of but just prior to the change in calcium), and days 1, 3, and 7 after the change. During the first week, 0.5 mL of blood was taken on the first two of these days and anticoagulated with heparin, the cells were isolated and resuspended in normal rat plasma and reinjected into the femoral vein. […] For the subsequent samplings, only 0.2-0.3 mL of blood was taken by bleeding from the tail into precalibrated microcentrifuge tubes. […]
as §1

[4] = test system: 24-hydroxylase; assay: Experiment 3: 24-hydroxylase in renal mitochondria; type: in vivo, rat; details: for Renal mitochondria 24-hydroxylase: 6 weeks
Procedure: Male, Wistar rats were obtained at 120-130 g, and placed on a 0.01% calcium, 0.7% phosphate diet that was vitamin D deficient (Teklad Test Diets, Madison, WI) this was for one week to help deplete vitamin D stores. For the next three weeks the rats were fed the vitamin D-deficient diet, but with normal, 0.5%, calcium. Starting with these 3 weeks, the rats were divided into four vitamin D3 -treatment groups, initially, nine rats per group: group a) supplemented once weekly with 0.6 μg vitamin D3 (average dose, 0.08 μg/day); group b) supplemented once every second day with vitamin D3 to provide 2 nmol/day, i.e., each dose was 4 nmol of vitamin D3; group c) supplemented once every second day with vitamin D3 to provide 8 μg/day. The preceding groups all received the vitamin D3 through an infant-feeding tube inserted through the mouth into the stomach. One group, d), received its vitamin D3 in the ethanol applied onto a shaved 2 cm×2 cm patch of skin on the back, this was done every second day to provide vitamin D3 at 8 μg/day. The volume of each dose of vitamin D3 given was adjusted so that the stated doses are per 250 g body weight. Over a second 3-week period while maintaining the described vitamin D3 dosing regimens, diet calcium content was changed weekly and blood sampling was started (that is, changes in calcium and sampling was from weeks 4 to 6, inclusive, of receiving the appropriate vitamin D3 supplement). Diet calcium was first dropped to 0.01% then raised to 1.5% and finally dropped again to 0.01%. For each week of dietary calcium manipulation, blood was obtained at day zero (the day of but just prior to the change in calcium), and days 1, 3, and 7 after the change. During the first week, 0.5 mL of blood was taken on the first two of these days and anticoagulated with heparin, the cells were isolated and resuspended in normal rat plasma and reinjected into the femoral vein. […] For the subsequent samplings, only 0.2-0.3 mL of blood was taken by bleeding from the tail into precalibrated microcentrifuge tubes. In this way, the bleeds prior to sacrifice removed a net total of less than 2 mL of blood, that is, less than or equal to 10% of the blood volume. Samples of daytime urine was collected into microfuge tubes that were fastened to the cones of metabolic collection funnels designed to hang under the wire cages. The cages and cones were rinsed with 0.1 mol/L hydrochloric acid prior to each collection. To eliminate contamination of the urine with diet, stool or water, the rats were placed into these separate cages only during the urine-collection period, until about 1 mL urine was present in the microfuge tube, this was typically within 5 min to one hour.
Biochemical measurements. 1,25(OH)2 D3 in serum was measured by calf-thymus receptor-binding assay after initial purification of 1,25(OH)2 D3 with C18-OH cartridges (5). For the serum volumes that were minimal, serum was measured out in 50 μL increments, and the final result was adjusted for the volume of sample analyzed. To measure 1α-hydroxylase in renal mitochondria, the incubation was as described previously, except the substrate was 20 μmol/L nonradioactive 25(OH)D3. The assay was stopped by addition of 2.5 mL methanol. To monitor recovery of 1,25 (OH)2 D3, 2000 cpm of [^3 H]--1,25(OH)2 D3 were added in 50 μL ethanol prior to further extraction with two additions of 1.25 mL methylene chloride. The methylene chloride layer was taken and evaporated to dryness, redissolved in hexane, isopropanol, methanol (90:9: 1) for purification by HPLC, Zorbax-Sil column. The material eluting as 1,25(OH)2 D3 was evaporated and redissolved in acetonitrile: water for further purification with C18-OH cartridges and quantitation by thymus receptor assay, as described for serum. Renal 24-hydroxylase was measured by incubating mitochondria with [^3 H]-25(OH)D3 as substrate (Vieth and Fraser, J Biol Chem. 254:12455-12460;1979). […]

[5] = 50 μg in 10 μL 95% ethanol, shaved skin of rats; cited from earlier work
[6] = cited from earlier work

C=C1CC[C@H](O)C/C1=C/C=C1\CCC[C@]2(C)[C@@H]([C@H](C)CCCC(C)C)CC[C@@H]12 [vitamin D3]
difference in serum radioactivity between dermal and oral groups ([1]; 3 wk): not statistically significant
vitamin D3 delivered into the blood compared to direct injection ([1]; dermal and gastric): less than half
rate of uptake into the circulation from the skin vs gut ([1]; one tracer dose, rats): more slowly than from the gut
radioactivity in kidney, liver, and adipose tissues ([1]; radioactive vitamin D3): paralleled to the serum levels
effectiveness of dermal vs oral route in raising 25(OH)D3 ([2]; 20 nmol/250 g/day): 85%
serum 25(OH)D3 ([2]; dermal 8 μg/day): 127 ± 4 nmol/L
serum 25(OH)D3 ([2]; gastric 8 μg/day): 148 ± 10 nmol/L
Binding Capacity for 25(OH)D3 ([3]; 0.08 μg/day diet): 7.1 µmol/L
Binding Capacity for 25(OH)D3 ([3]; 0.8 μg/day G1 (gastric)): 6.93 µmol/L
Binding Capacity for 25(OH)D3 ([3]; 8 μg/day G1 (gastric)): 7.13 µmol/L
Binding Capacity for 25(OH)D3 ([3]; 8 μg/day dermal): 7.96 µmol/L
difference between the two routes in activities of renal enzymes (24-hydroxylase) ([4]; 20 nmol/250 g/day): no significant difference between the two routes
Renal mitochondria 24-hydroxylase ([4]; 0.08 μg/day diet): 1.34 pmol/mg/mi
Renal mitochondria 24-hydroxylase ([4]; 0.8 μg/day G1 (gastric)): 3.67 pmol/mg/mi
Renal mitochondria 24-hydroxylase ([4]; 8 μg/day G1 (gastric)): 8.88 pmol/mg/mi
Renal mitochondria 24-hydroxylase ([4]; 8 μg/day dermal): 6.26 pmol/mg/mi
24-hydroxylase in kidney ([4]; 8 μg/day, gastric and dermal, vs groups with less vitamin D3): increased 24-hydroxylase in kidney
response (intestinal calcium transport and serum calcium) [5]: no response was detected
solubility in water [6]: not soluble in water
